According to ChEMBL document CHEMBL1141709, “Optimization of small molecule agonists of the thrombopoietin (Tpo) receptor derived from a benzo[a]carbazole hit scaffold” (Bioorg Med Chem Lett, 2008):

Legend:
[1] = biological target: T1, Thrombopoietin receptor (Homo sapiens, UniProt P40238); test: Agonist activity at human thrombopoietin receptor expressed in mouse Ba/F3 cells by kinase activation based reporter gene assay; assay type: functional, cell-based, BaF3
T1 sequence (P40238 whole entry): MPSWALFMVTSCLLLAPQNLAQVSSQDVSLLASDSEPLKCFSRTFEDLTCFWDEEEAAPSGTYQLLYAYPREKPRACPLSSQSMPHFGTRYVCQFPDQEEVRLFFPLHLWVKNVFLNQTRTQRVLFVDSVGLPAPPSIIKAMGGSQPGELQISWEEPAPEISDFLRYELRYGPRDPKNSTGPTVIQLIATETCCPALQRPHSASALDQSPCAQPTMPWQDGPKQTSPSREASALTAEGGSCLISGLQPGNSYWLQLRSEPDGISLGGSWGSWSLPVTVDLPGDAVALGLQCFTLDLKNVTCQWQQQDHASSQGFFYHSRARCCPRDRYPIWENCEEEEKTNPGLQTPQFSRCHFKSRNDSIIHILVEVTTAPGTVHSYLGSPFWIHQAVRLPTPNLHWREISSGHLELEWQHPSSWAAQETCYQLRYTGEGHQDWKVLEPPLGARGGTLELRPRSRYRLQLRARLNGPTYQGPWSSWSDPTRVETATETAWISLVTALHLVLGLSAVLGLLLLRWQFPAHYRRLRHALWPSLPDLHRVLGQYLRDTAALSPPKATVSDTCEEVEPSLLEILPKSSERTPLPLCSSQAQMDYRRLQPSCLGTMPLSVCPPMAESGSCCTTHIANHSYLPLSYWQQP

[2] = biological target: T2, Thrombopoietin receptor (Homo sapiens) (UniProt P40238); test: Agonist activity at human thrombopoietin receptor expressed in mouse Ba/F3 cells by kinase activation based reporter gene assay relative to 30 ng/mL thrombopoietin; assay type: functional, cell-based; conditions: BaF3
T2 sequence (whole entry): T1 sequence (P40238 whole entry)

[3] = biological target: T2, Thrombopoietin receptor (Homo sapiens); test: Agonist activity at human thrombopoietin receptor expressed in mouse Ba/F3 cells in presence of 1 mM Zinc by kinase activation based reporter gene assay; assay type: functional, cell-based; conditions: BaF3
[4] = biological target: T2, Thrombopoietin receptor (Homo sapiens); test: Agonist activity at human thrombopoietin receptor expressed in mouse Ba/F3 cells in presence of 1 mM Zinc by kinase activation based reporter gene assay relative to 30 ng/mL thrombopoietin; assay type: functional, cell-based; conditions: BaF3
[5] = Thrombopoietic activity in human megakaryocytes assessed as induction of cell differentiation by CFU-mega assay; assay type: functional, cell-based

Compound	EC50 [1]	Efficacy [2]	EC50 [3]	Efficacy [4]	EC50 [5]
CCCCc1ccc(-c2ccc3cc(-c4ccc(C(=O)O)cc4)[nH]c3c2F)cc1	117 nM	112%	–	–	–
CCCCc1ccc(-c2ccc3cc(-c4ccc(C(=O)O)c(O)c4)[nH]c3c2F)cc1	51 nM	141%	–	–	–
CCCCc1ccc(-c2ccc3nc(-c4ccc(C(=O)O)cc4)[nH]c3c2)cc1	1260 nM	83%	–	–	–
CCCCc1ccc(-c2ccc3c4c([nH]c3c2F)-c2ccc(NC(N)=O)cc2C4)cc1	–	–	124 nM	128%	–
CCCCc1ccc(-c2ccc3cc(-c4ccc(C(N)=O)cc4)[nH]c3c2F)cc1	160 nM	81%	–	–	–
CCCCc1ccc(-c2ccc3c(CC)c(-c4ccc(C(=O)O)c(O)c4)[nH]c3c2F)cc1	228 nM	97%	–	–	–
CCCCc1ccc(-c2ccc3c4c([nH]c3c2)-c2ccc(C(=O)O)cc2S(=O)(=O)C4)cc1	449 nM	115%	–	–	–
CCCCc1ccc(-c2ccc3c4c([nH]c3c2F)-c2ccc(NC(C)=O)cc2C4)cc1	25 nM	117%	–	–	300 nM
CCCCc1ccc(-c2ccc3c4c([nH]c3c2F)-c2ccc(NC(=O)C(=O)O)cc2C4)cc1	21 nM	110%	–	–	–
CCCCc1ccc(-c2ccc3c4c([nH]c3c2F)-c2ccc(C(=O)O)cc2C4)cc1	37 nM	151%	–	–	–
Cc1cc(-c2ccc3c4c([nH]c3c2F)-c2ccc(C(N)=O)cc2COC4=O)ccc1F	> 30000 nM	0%	–	–	–
CCCCc1ccc(-c2ccc3c4c([nH]c3c2)-c2ccc(C(=O)O)cc2C4)cc1	160 nM	91%	–	–	–
Cc1cc(-c2ccc3c4c([nH]c3c2F)-c2ccc(C(N)=O)cc2C4)ccc1F	277 nM	105%	–	–	–
CCCCc1ccc(-c2ccc3c(C)c(-c4ccc(C(=O)O)c(O)c4)[nH]c3c2F)cc1	116 nM	119%	–	–	–
Cc1cc(-c2ccc3c4c([nH]c3c2F)-c2ccc(C(=O)O)cc2C4)ccc1F	26 nM	144%	–	–	–
CC1=NN(c2ccc(C)c(C)c2)C(=O)/C1=N\Nc1cccc(-c2cccc(C(=O)O)c2)c1O [ELTROMBOPAG]	38 nM	127%	–	–	–
CCCCc1ccc(-c2ccc3c4c([nH]c3c2F)-c2ccc(C(=O)O)cc2C4(C)C)cc1	111 nM	118%	–	–	–
CCCCc1ccc(-c2ccc3c4c([nH]c3c2F)-c2cc(N)c(C(=O)O)cc2C4)cc1	–	–	341 nM	70%	–
CCCCc1ccc(-c2ccc3c4c([nH]c3c2F)-c2ccc(NC(=O)CO)cc2C4)cc1	–	–	87 nM	98%	–
CCCCc1ccc(-c2ccc3c(C(C)C)c(-c4ccc(C(=O)O)c(O)c4)[nH]c3c2F)cc1	> 1000 nM	70%	–	–	–
CCCCc1ccc(-c2ccc3c4c([nH]c3c2F)-c2ccc(NS(C)(=O)=O)cc2C4)cc1	–	–	166 nM	95%	–
CCCCc1ccc(-c2ccc3nc(-c4ccc(C(=O)O)c(O)c4)[nH]c3c2)cc1	179 nM	121%	–	–	–
CCCCc1ccc(-c2ccc3c4c([nH]c3c2)-c2ccc(C(=O)O)cc2CCC4)cc1	–	–	332 nM	71%	–
CCCCc1ccc(-c2ccc3c4c([nH]c3c2)-c2ccc(C(=O)O)cc2CC4)cc1	111 nM	–	–	–	–
CCCCc1ccc(-c2ccc3c4c([nH]c3c2)-c2ccc(C(N)=O)cc2C4)cc1	86 nM	118%	–	–	–
Cc1cc(-c2ccc3c4c([nH]c3c2F)-c2ccc(C(N)=O)cc2OC4)ccc1F	1430 nM	83%	–	–	–
CCCCc1ccc(-c2ccc3c4c([nH]c3c2F)-c2cc(NC(C)=O)c(C(=O)O)cc2C4)cc1	376 nM	90%	–	–	–
